# Measurements from PMC9414910, “Optimized ^68Ga-Labeled Urea-Based PSMA-Targeted PET Tracers for Prostate Cancer” (Pharmaceuticals, 2022).
# Experiments:
# 22Rv1 tumors = assay: Micro-PET imaging in 22Rv1 tumor-bearing mice; type: in vivo; conditions: 60 min p.i.; for SUVmax of tumor: 22Rv1 tumor, 7.4 MBq
# Procedure: (§1) The animal studies were approved by the institutional animal care and use committee of the Chinese PLA General Hospital. Healthy male ICR mice were injected with either a novel radiotracer (37 MBq in 150 μL) or saline (150 μL) for the radiotoxicity evaluation. […] Biodistribution and micro-PET studies were performed on 22Rv1 and PC-3 xenograft models, and 2-PMPA was used as the PSMA blocker (all details are shown in the Supplementary Materials).
# Table S9. Tumor-to-mu scle (T/M) ratio and tumor- to-kidney (T/K) rati o of radiotracers at 60 min p.i.
# The Mice bearing 22Rv1 and PC-3 (n = 3/group) xenograft tumors were […]
# Co-injection with 2-PMPA (50 μ g) and each novel tracer (7.4 MBq in 150 μL) was used for blocking. Then the mice were anesthetized with 3% (v/v) isoflurane and underwent Micro-PET scans with continuous 1% (v/v) isoflurane. The images were acquired at 60 min p.i.. In comparison, […]
# into another group of mice (n = 3), and Micro-PET schedule was performed as […]
# Imaging was performed on a Super Nova PET/CT scanner using a 100-mm-transaxial field of view for PET and 110-mm for CT.
# Three-dimensional ordered-subsets expectation maximization reconstruction
# [1] = Partition coefficient, octanol–water system; type: physicochemical; conditions: octanol–water (v/v = 1:1), n = 3
# Procedure: The partition coefficient of each novel radiotracer was determined using an octanol–water system (v/v = 1:1). The in vitro stability was determined using two systems (PBS and 5% BSA). The Ki value was measured by the NAALADase assay. The 22Rv1 and PC-3 cell lines were used for the cell-binding study and establishment of the tumor-bearing model (detailed information is shown in the Supplementary Materials).
# PBS) and reported as log p ± SD. […]
# 22Rv1 tumor-bearing mice = assay: Biodistribution in 22Rv1 tumor-bearing mice; conditions: for Uptake Blood, Mean / Uptake Bone, Mean / Uptake Heart, Mean / Uptake Kidney, Mean / Uptake Liver, Mean / Uptake Lung, Mean / Uptake Muscle, Mean / Uptake Spleen, Mean / Uptake Tumor (22Rv1), Mean: 0.74 MBq, n = 3; for Clearance profile in the kidneys: within 60 min p.i.
# Procedure: as §1
# BALB/c nude mice (male, 4-6 weeks) were inoculated subcutaneously with […]
# 100 mm3, the mice underwent biodistribution study and Micro-PET imaging.
# The 22Rv1 tumor-bearing mice were injected with each novel radiotracer or […]
# […] Mice were sacrificed at different time points p.i. (10 min, 30 min, 60 min), tumors and interested organs were harvested, weighed and measured by a γ-counter, the results were expressed as the percentage of injected dose per gram (ID%/g).
# Table S1. Uptake values for ex vivo tissues of [ 68Ga]Ga-PSMA-Q (0.74 MBq/mice) in 22Rv1 tumor-bearing mice (10, 30 and 60 min p.i., n = 3/time point).
# 22Rv1 cells (mild PSMA+) = assay: Cell uptake / binding in 22Rv1 cells; type: cell-based, human; conditions: 60 min incubation, 37 °C
# Description: Cell lines were kindly provided by the stem cell bank of the Chinese Academy of Sciences. The human prostate cancer epithelial cell lines 22Rv1 (mild PSMA+) and PC-3 (with no PSMA receptor) were used to evaluate the specific cell-binding affinity of the radiotracers, and the results were expressed as percentages of injected activity, IA%/10^6.
# Cell Lines and Culture Condition
# Cell lines were kindly provided by the stem cell bank, the Chinese Academy of Sciences. The human prostate cancer cell lines 22Rv1 ( mild PSMA positive) and PC3 (PSMA negative) were cultured in RPMI 1640 medium or F12K medium (CORNING, America), supplemented with 10% Fetal Bovine Serum
# (GIBCO, The Netherlands) and 1% penicillin-streptomycin (CORNING, America) in a humidified incubator at 37 °C under 5% CO2. Each cell line was passaged when it was at around 80-90% confluence, and harvested using trypsin-ethylenediaminetetraacetic acid (trypsin-EDTA; 0.25% trypsin, 0.02% EDTA, all from KeyGEN BioTECH).
# Cells were seeded separately in 24 well plates (1 x 10^5 cells in 1 mL medium/well) and incubated overnight, the medium was changed 2 h before the experiment. For the binding experiments, cells were incubated with novel […]
# min, 30 min and 60 min (6 wells/time point). After incubation, the medium was removed and the cells were washed twice with ice-cold phosphate-buffered saline (0.5 mL). Finally, the cells were lysed by NaOH (0.5 M, 0.5 mL). Coincubation of 2-(phosphonomethyl) pentane-1,5-dioic acid […]
# (2-PMPA) solution (2 μg/well) and each radiotracer for 60 min was conducted as the blocking experiment. The radioactivity of cells was measured by a γ-counter. The studies were performed in triplicate and the results were reported as the percentage injected activity (IA%/10^6 cells). […]
# [2] = Blood pharmacokinetics in male ICR mice; type: in vivo; conditions: 7.4 MBq i.v., two-compartment model
# Procedure: Injection of novel radiotracers or [68Ga]Ga-PSMA-617 or [68Ga]Ga-PSMA-11 […]
# mice (5 mice/group), and the blood sample (5 μL) of each mouse was collected by cutting down the tail end at different time points post injection. The radioactivity of blood samples were measured by a γ-counter and the pharmacokinetics data was calculated using the WinNonlin software.
# Figure S3. Time-activity curves of the blood samplesafter injection of 7.4 MBq of [68Ga]Ga-PSMA-4PY (A), [68Ga]Ga-PSMA-Q (B),[68Ga]Ga-PSMA-P (C), [68Ga]Ga-PSMA-617 (D), [68Ga]Ga-PSMA-11 (E), [68Ga]Ga-PSMA-Q-1 (F), [68Ga]Ga-PSMA-Q-2 (G) and [68Ga]Ga-PSMA-Q-3 (H).
# (1 picture or pasted object on this page, not shown here)
# [3] = biodistribution, 22Rv1 tumor-bearing mice, 60 min p.i.
SMILES,SUVmax of tumor (22Rv1 tumors),Log p pH = 7.4 [1],"Uptake Blood, Mean (22Rv1 tumor-bearing mice; 10 min p.i.)","Uptake Bone, Mean (22Rv1 tumor-bearing mice; 10 min p.i.)","Uptake Heart, Mean (22Rv1 tumor-bearing mice; 10 min p.i.)","Uptake Kidney, Mean (22Rv1 tumor-bearing mice; 10 min p.i.)","Uptake Liver, Mean (22Rv1 tumor-bearing mice; 10 min p.i.)","Uptake Lung, Mean (22Rv1 tumor-bearing mice; 10 min p.i.)","Uptake Muscle, Mean (22Rv1 tumor-bearing mice; 10 min p.i.)","Uptake Spleen, Mean (22Rv1 tumor-bearing mice; 10 min p.i.)","Uptake Tumor (22Rv1), Mean (22Rv1 tumor-bearing mice; 10 min p.i.)","Uptake Blood, Mean (22Rv1 tumor-bearing mice; 30 min p.i.)","Uptake Bone, Mean (22Rv1 tumor-bearing mice; 30 min p.i.)","Uptake Kidney, Mean (22Rv1 tumor-bearing mice; 30 min p.i.)","Uptake Liver, Mean (22Rv1 tumor-bearing mice; 30 min p.i.)","Uptake Lung, Mean (22Rv1 tumor-bearing mice; 30 min p.i.)","Uptake Muscle, Mean (22Rv1 tumor-bearing mice; 30 min p.i.)","Uptake Spleen, Mean (22Rv1 tumor-bearing mice; 30 min p.i.)","Uptake Tumor (22Rv1), Mean (22Rv1 tumor-bearing mice; 30 min p.i.)","Uptake Blood, Mean (22Rv1 tumor-bearing mice; 60 min p.i.)",further results
O=C([O-])CN1CCN(CC(=O)[O-])CCN(CC(=O)NCC2CCC(C(=O)NC(Cc3ccncc3)C(=O)NCCCCC(NC(=O)NC(CCC(=O)O)C(=O)O)C(=O)O)CC2)CCN(CC(=O)O)CC1.[68Ga+3] (stereo not shown) [[^68Ga]Ga-PSMA-4PY],0.69 ± 0.26,−3.49 ± 0.01,1.68 ID%/g,0.56 ID%/g,1.87 ID%/g,2.15 ID%/g,1.53 ID%/g,0.83 ID%/g,0.67 ID%/g,0.59 ID%/g,1.56 ID%/g,0.68 ID%/g,0.28 ID%/g,2.08 ID%/g,0.78 ID%/g,0.50 ID%/g,0.31 ID%/g,0.47 ID%/g,1.83 ID%/g,0.21 ID%/g,"Uptake Heart, Mean (22Rv1 tumor-bearing mice; 30 min p.i.): 0.86 ID%/g; Uptake Bone, Mean (22Rv1 tumor-bearing mice; 60 min p.i.): 0.21 ID%/g; Uptake Heart, Mean (22Rv1 tumor-bearing mice; 60 min p.i.): 0.58 ID%/g; Uptake Liver, Mean (22Rv1 tumor-bearing mice; 60 min p.i.): 0.47 ID%/g; Uptake Lung, Mean (22Rv1 tumor-bearing mice; 60 min p.i.): 0.25 ID%/g; Uptake Muscle, Mean (22Rv1 tumor-bearing mice; 60 min p.i.): 0.14 ID%/g; Uptake Spleen, Mean (22Rv1 tumor-bearing mice; 60 min p.i.): 0.33 ID%/g; Uptake Tumor (22Rv1), Mean (22Rv1 tumor-bearing mice; 60 min p.i.): 2.15 ID%/g; Uptake Tumor (22Rv1), Mean (22Rv1 tumor-bearing mice; 60 min p.i., listed as [^68Ga]Ga-PSMA-Q-4PY): 2.15 ± 0.46 ID%/g; Clearance profile in the kidneys (22Rv1 tumor-bearing mice): remained relatively stable; Uptake in 22Rv1 cells (22Rv1 cells (mild PSMA+)): 3.01 ± 0.47 IA%/10^6; Elimination half-life [2]: 15.15 ± 0.32 min"
"O=C([O-])CN1CCN(CC(=O)[O-])CCN(CC(=O)NCC2CCC(C(=O)NC(Cc3ccc4ccccc4c3)C(=O)NCCCCC(NC(=O)NC(CCC(=O)O)C(=O)O)C(=O)O)CC2)CCN(CC(=O)O)CC1.[68Ga+3] (stereo not shown) [[^68Ga]Ga-PSMA-617, reference compound]",0.85 ± 0.14,−2.54 ± 0.13,2.21 ID%/g,1.17 ID%/g,2.11 ID%/g,16.30 ID%/g,1.89 ID%/g,1.40 ID%/g,0.87 ID%/g,2.11 ID%/g,2.10 ID%/g,0.58 ID%/g,0.38 ID%/g,25.77 ID%/g,1.13 ID%/g,0.95 ID%/g,0.31 ID%/g,1.31 ID%/g,3.36 ID%/g,0.33 ID%/g,"Tumor-to-muscle ratio (micro-PET) (22Rv1 tumors; 22Rv1 tumor-bearing mice): 20.43 ± 1.06; Uptake Heart, Mean (22Rv1 tumor-bearing mice; 30 min p.i.): 1.20 ID%/g; Uptake Bone, Mean (22Rv1 tumor-bearing mice; 60 min p.i.): 0.29 ID%/g; Uptake Heart, Mean (22Rv1 tumor-bearing mice; 60 min p.i.): 0.10 ID%/g; Uptake Kidney, Mean (22Rv1 tumor-bearing mice; 60 min p.i.): 29.78 ID%/g; Uptake Liver, Mean (22Rv1 tumor-bearing mice; 60 min p.i.): 0.51 ID%/g; Uptake Lung, Mean (22Rv1 tumor-bearing mice; 60 min p.i.): 0.33 ID%/g; Uptake Muscle, Mean (22Rv1 tumor-bearing mice; 60 min p.i.): 0.15 ID%/g; Uptake Spleen, Mean (22Rv1 tumor-bearing mice; 60 min p.i.): 0.95 ID%/g; Uptake Tumor (22Rv1), Mean (22Rv1 tumor-bearing mice; 60 min p.i.): 4.27 ± 0.10 ID%/g; Uptake Tumor (22Rv1), Mean (22Rv1 tumor-bearing mice; 60 min p.i., listed as [68Ga]Ga-PSMA-617): 4.27 ID%/g; Tumor-to-kidney (T/K) ratio (22Rv1 tumor-bearing mice; [3]): 0.14 ± 0.01; Tumor-to-muscle (T/M) ratio (22Rv1 tumor-bearing mice; [3]): 28.43 ± 0.84; Clearance profile in the kidneys (22Rv1 tumor-bearing mice): continuously accumulated in the kidneys; Uptake in 22Rv1 cells (22Rv1 cells (mild PSMA+)): 4.01 ± 0.42 IA%/10^6; Elimination half-life [2]: 28.46 ± 1.64 min"
O=C([O-])CN1CCN(CC(=O)[O-])CCN(CC(=O)NCCCCC(=O)NC(Cc2cnc3ccccc3c2)C(=O)NCCCCC(NC(=O)NC(CCC(=O)O)C(=O)O)C(=O)O)CCN(CC(=O)O)CC1.[68Ga+3] (stereo not shown) [[^68Ga]Ga-PSMA-Q-1],0.86 ± 0.09,−3.09 ± 0.19,2.88 ID%/g,0.72 ID%/g,2.21 ID%/g,27.12 ID%/g,2.38 ID%/g,1.19 ID%/g,0.81 ID%/g,2.26 ID%/g,1.67 ID%/g,1.31 ID%/g,0.21 ID%/g,18.86 ID%/g,1.23 ID%/g,0.68 ID%/g,0.18 ID%/g,1.79 ID%/g,2.07 ID%/g,0.37 ID%/g,"Uptake Bone, Mean (22Rv1 tumor-bearing mice; 60 min p.i.): 0.15 ID%/g; Uptake Heart, Mean (22Rv1 tumor-bearing mice; 60 min p.i.): 0.54 ID%/g; Uptake Kidney, Mean (22Rv1 tumor-bearing mice; 60 min p.i.): 5.70 ID%/g; Uptake Liver, Mean (22Rv1 tumor-bearing mice; 60 min p.i.): 0.45 ID%/g; Uptake Lung, Mean (22Rv1 tumor-bearing mice; 60 min p.i.): 0.26 ID%/g; Uptake Muscle, Mean (22Rv1 tumor-bearing mice; 60 min p.i.): 0.09 ID%/g; Uptake Spleen, Mean (22Rv1 tumor-bearing mice; 60 min p.i.): 0.45 ID%/g; Uptake Tumor (22Rv1), Mean (22Rv1 tumor-bearing mice; 60 min p.i.): 2.38 ± 0.31 ID%/g; Uptake Tumor (22Rv1), Mean (22Rv1 tumor-bearing mice; 60 min p.i., listed as [68Ga]Ga-PSMA-Q-1): 2.38 ID%/g; Clearance profile in the kidneys (22Rv1 tumor-bearing mice): washed out rapidly from the kidneys; Uptake in 22Rv1 cells (22Rv1 cells (mild PSMA+)): 3.38 ± 0.50 IA%/10^6; Elimination half-life [2]: 21.17 ± 2.01 min"
